# Measurements published in patent US11963946B2, “MDMA treatment to enhance acute emotional effects profile of LSD, psilocybin, or other psychedelics” (Universitätsspital Basel, priority 2020, dated 2024).
# Values joined by “and” are separate entries in the source; they are usually repeats but may differ in a detail not shown here. Identical values can stand only once. Like-named read-outs stand apart in the source and are kept apart here.
# Assays:
# humans = conditions: cited from earlier work
# healthy human subjects [1] = experiment: Subjective effects Visual Analog Scales (VAS), LSD-MDMA clinical study; conditions: for peak subjective effects ratings of any drug effect (VAS): oral, mean of two healthy subjects; for bad drug effects (VAS): FIG. 3A; for ratings of being talkative (VAS): FIG. 8A; for wanting to be alone / with other people (VAS): FIGS. 10A and 10B
# healthy human subjects [2] = experiment: Adverse effects, list of complaints (LC) score, LSD-MDMA clinical study; conditions: 0.1 mg LSD, 100 mg MDMA or both; mean of two subjects; placebo 5
# healthy human subjects [3] = conditions: two subjects; FIGS. 12, 13
# 5-HT2A receptor = 5-HT2A receptor (Homo sapiens, UniProt P28223); conditions: Rickli et al., 2016; cited from earlier work
# Chain of 5-HT2A receptor (P28223 whole entry): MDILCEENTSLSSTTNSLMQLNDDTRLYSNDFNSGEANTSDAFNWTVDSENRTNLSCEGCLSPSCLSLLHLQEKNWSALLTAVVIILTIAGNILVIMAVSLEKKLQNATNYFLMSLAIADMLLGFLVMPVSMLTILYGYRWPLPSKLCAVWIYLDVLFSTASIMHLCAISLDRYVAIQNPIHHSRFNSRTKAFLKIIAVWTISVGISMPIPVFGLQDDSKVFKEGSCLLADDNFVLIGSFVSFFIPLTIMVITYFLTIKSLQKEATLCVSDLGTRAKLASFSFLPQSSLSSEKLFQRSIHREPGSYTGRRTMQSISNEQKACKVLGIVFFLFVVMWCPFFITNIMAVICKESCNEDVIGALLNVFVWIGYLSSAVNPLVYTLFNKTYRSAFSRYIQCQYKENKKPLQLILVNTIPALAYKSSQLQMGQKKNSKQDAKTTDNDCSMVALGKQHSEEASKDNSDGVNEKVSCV
# healthy humans = conditions: cited from earlier work
# [4] = tested on: serotonin 5-HT1 receptors; conditions: Rickli et al., 2016; cited from earlier work
# D1-3 receptors = conditions: Rickli et al., 2016; cited from earlier work
# 5-HT transporter (SERT) = 5-HT transporter (SERT) (Homo sapiens, UniProt P31645); conditions: Rickli et al., 2016; cited from earlier work
# Chain of 5-HT transporter (SERT) (P31645 whole entry, species assumed): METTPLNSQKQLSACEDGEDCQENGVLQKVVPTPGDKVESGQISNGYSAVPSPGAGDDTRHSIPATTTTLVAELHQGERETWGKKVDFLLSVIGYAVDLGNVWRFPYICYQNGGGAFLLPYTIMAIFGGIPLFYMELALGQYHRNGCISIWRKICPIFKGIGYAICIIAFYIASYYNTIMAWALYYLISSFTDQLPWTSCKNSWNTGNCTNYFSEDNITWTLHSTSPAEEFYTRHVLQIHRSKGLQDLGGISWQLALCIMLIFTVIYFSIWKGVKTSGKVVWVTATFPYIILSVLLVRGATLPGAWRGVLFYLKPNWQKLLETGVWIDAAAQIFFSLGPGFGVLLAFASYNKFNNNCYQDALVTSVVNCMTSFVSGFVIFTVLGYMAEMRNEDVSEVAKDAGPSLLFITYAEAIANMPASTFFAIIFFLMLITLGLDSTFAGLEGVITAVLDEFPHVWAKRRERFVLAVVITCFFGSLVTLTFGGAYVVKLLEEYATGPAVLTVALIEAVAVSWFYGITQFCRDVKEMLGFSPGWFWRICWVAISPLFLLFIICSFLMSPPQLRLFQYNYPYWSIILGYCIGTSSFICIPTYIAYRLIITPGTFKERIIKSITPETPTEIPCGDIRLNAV
# D2 receptors = D2 receptors (Homo sapiens, UniProt P14416); conditions: cited from earlier work
# Chain of D2 receptors (P14416 whole entry): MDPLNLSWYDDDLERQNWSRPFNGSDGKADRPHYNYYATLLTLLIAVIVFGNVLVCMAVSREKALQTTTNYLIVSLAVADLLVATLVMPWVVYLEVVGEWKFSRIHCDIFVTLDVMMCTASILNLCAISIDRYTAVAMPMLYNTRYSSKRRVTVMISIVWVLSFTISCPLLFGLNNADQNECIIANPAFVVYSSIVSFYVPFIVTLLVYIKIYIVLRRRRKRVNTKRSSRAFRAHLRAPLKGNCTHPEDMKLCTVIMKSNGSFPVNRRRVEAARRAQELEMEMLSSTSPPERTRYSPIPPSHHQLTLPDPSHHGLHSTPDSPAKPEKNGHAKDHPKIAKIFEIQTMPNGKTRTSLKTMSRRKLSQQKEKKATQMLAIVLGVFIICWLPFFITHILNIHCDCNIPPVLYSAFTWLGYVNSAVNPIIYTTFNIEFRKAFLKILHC
# [5] = oral administration (Vizeli et al., 2017)
# [6] = 0.1 mg LSD, 100 mg MDMA or both, FIG. 2A
# [7] = 0.1 mg LSD, 100 mg MDMA or both, two subjects
structure (smiles),measurement,setting,value
"CNC(C)Cc1ccc2c(c1)OCO2 (stereo not shown) [MDMA, 3,4-methylenedioxymethamphetamine]",duration of the subjective effect,"humans; MDMA (Vizeli et al., 2017)",4.2 ± 1.3 h
same,onset of the MDMA effect (mean±SD),humans; [5],33 ± 24 min and 33 min
same,time to peak effect after MDMA administration,humans; [5],1.6 ± 0.8 h and 1.6 h
same,peak subjective effects ratings of any drug effect (VAS),healthy human subjects [1]; [6],comparable peak subjective effects ratings
same,bad drug effects (VAS),healthy human subjects [1]; [7],moderately increased subjective bad drug effect ratings
same,ratings of openness (VAS),healthy human subjects [1]; two subjects,increases ratings of openness
same,ratings of being talkative (VAS),healthy human subjects [1]; two subjects,increases ratings of being talkative
same,ratings of trust (VAS),"healthy human subjects [1]; two subjects, FIG. 9A",increases feelings of trust
same,wanting to be alone / with other people (VAS),healthy human subjects [1]; two subjects,wanted to be with others and not alone
same,Total average LC scores,healthy human subjects [2],12
"CCN(CC)C(=O)[C@@H]1C=C2c3cccc4[nH]cc(c34)C[C@H]2N(C)C1 [LSD, lysergic acid diethylamide]",alterations of consciousness on the 5D-ASC main and subscales,healthy human subjects [3],comparable degrees of alterations of consciousness
same,stimulation of the 5-HT2A receptor,5-HT2A receptor,potently stimulates
same,"time of onset of the subjective response, any drug effect VAS (mean±SD)","healthy humans; 0.1 mg LSD (Holze et al., 2019a), range 0.3-1.0",0.7 ± 0.2 h
same,duration of subjective effects (mean±SD),"healthy humans; 0.1 mg LSD (Holze et al., 2019a), range 5.3-12.8",8.5 ± 2.0 h
same,"time of offset of the subjective response, any drug effect VAS (mean±SD)","healthy humans; 0.1 mg LSD (Holze et al., 2019a), range 6.0-13.2",9.1 ± 2.0 h
same,subjects with bad drug effects (50% or more on a 0-100% scale at any time point),"healthy humans; 0.1 mg LSD, 3 of 24 subjects (Dolder et al., 2017)",12.5%
same,subjects with transient bad drug effects,"healthy humans; 0.1 mg LSD, 7 of 24 subjects (Holze et al., 2019a)",29%
same,duration of LSD effects,"healthy humans; 0.1 mg dose (Dolder et al., 2017), range 5-14",8.2 ± 2.1 h
same,subjects with bad drug effects (50% or more on a 0-100% scale at any time point),"healthy humans; 0.2 mg LSD, 9 of 16 subjects (Dolder et al., 2017)",56%
same,subjects with marked anxiety,"healthy humans; 0.2 mg LSD, sixteen healthy humans (Schmid et al., 2015)",two
same,duration of LSD effects,"healthy humans; 0.2 mg dose (Dolder et al., 2017), range 7-19.5",11.6 ± 1.7 h
same,subjective response to LSD compared to MDMA,"healthy humans; LSD 0.1 mg vs MDMA 125 mg (Holze et al., 2019b)",clearly more pronounced
same,time to the subjective peak effect,"healthy humans; LSD (Holze et al., 2019a), range 1.6-4.3",2.5 ± 0.6 h and 2.5 h
same,"start of LSD effect, on average",healthy humans; oral administration,42 min
same,time after administration at which anxiety mostly occurs (peak effects),healthy humans; oral dosing formulation of LSD,1 to 4 h
same,agonist potency at serotonin 5-HT1 receptors,[4],potent agonists
same,peak subjective effects ratings of any drug effect (VAS),healthy human subjects [1]; [6],comparable peak subjective effects ratings
same,duration of any drug effect (VAS),"healthy human subjects [1]; 0.1 mg LSD, 100 mg MDMA or both, two subjects, FIG. 2A",lasted longer than those of MDMA
same,good drug effects duration (VAS),"healthy human subjects [1]; 0.1 mg LSD, 100 mg MDMA or both, two subjects, FIG. 2B",lasted longer
same,bad drug effects (VAS),healthy human subjects [1]; [7],minor subjective bad drug effects
same,anxiety (VAS),"healthy human subjects [1]; 0.1 mg LSD, 100 mg MDMA or both, two subjects, FIG. 3B",moderate anxiety at drug effect onset
same,nausea (VAS),"healthy human subjects [1]; 0.1 mg LSD, two subjects, FIG. 4B",moderate nausea at drug effect onset
same,ratings of openness (VAS),healthy human subjects [1]; two subjects,lower increases in openness
same,changes in visual perception (VAS),"healthy human subjects [1]; two subjects, FIG. 5A",comparable changes in visual perception
same,synaesthesias (sounds influencing visual perception) (VAS),"healthy human subjects [1]; two subjects, FIG. 5B",comparable changes
same,changes in the perception of time (VAS),"healthy human subjects [1]; two subjects, FIG. 6A",comparable changes in the perception of time
same,ratings of being talkative (VAS),healthy human subjects [1]; two subjects,reduces talkative
same,degree of intro or extroversion (VAS),"healthy human subjects [1]; two subjects, FIG. 11",no effect
same,wanting to be alone / with other people (VAS),healthy human subjects [1]; two subjects,wanted to be with others and not alone
same,stimulation of D1-3 receptors,D1-3 receptors,stimulates D1-3 receptors
same,Total average LC scores,healthy human subjects [2],18
same,interaction with the SERT,5-HT transporter (SERT),does not interact with the SERT
CN(C)CCc1c[nH]c2cccc(O)c12 [psilocin],agonist potency at serotonin 5-HT1 receptors,[4],potent agonists
same,interaction with the SERT,5-HT transporter (SERT),inhibits the 5-HT transporter
COc1cc(CCN)cc(OC)c1OC [mescaline],agonist potency at serotonin 5-HT1 receptors,[4],low potency
same,affinity for D2 receptors,D2 receptors,no affinity
